Reference: publication PMC3680066 (BMC Microbiology, 2013)

Molecular target: leucine aminopeptidase (LAP), pepA (Burkholderia pseudomallei, UniProt Q63WC3)
Assay: biochemical
Conditions: read-out: Relative activity (%)

Chain of leucine aminopeptidase (LAP), pepA (Q63WC3 whole entry, looked up): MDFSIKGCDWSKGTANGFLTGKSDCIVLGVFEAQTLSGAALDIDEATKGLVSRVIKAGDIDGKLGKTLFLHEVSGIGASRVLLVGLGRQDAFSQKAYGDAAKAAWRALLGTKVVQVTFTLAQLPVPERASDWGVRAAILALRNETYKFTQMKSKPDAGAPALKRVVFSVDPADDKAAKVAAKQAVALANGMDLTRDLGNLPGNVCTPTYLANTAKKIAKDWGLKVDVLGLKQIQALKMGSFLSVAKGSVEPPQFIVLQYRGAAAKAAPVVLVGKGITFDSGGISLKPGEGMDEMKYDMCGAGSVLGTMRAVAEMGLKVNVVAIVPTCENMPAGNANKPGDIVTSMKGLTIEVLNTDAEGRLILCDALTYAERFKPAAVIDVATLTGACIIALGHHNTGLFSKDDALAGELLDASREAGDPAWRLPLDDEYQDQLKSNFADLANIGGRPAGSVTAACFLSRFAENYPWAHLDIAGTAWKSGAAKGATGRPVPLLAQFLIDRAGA

`CC(C)C[C@@H](N)[C@H](O)C(=O)N[C@H](C(=O)N[C@H](C(=O)N[C@@H](CC(=O)O)C(=O)O)C(C)C)C(C)C` [amastatin] was tested, and the activity at 2000 µM was 0%.
